Patent publication US7704502B2, “Combinations of antibodies selective for DR5 and other therapeutic agents” (The UAB Research Foundation, priority 2000, dated 2010)

Columns and labels:
[1] = system: CLL B cells; assay: Apoptosis/cytotoxicity in CLL B cells in vitro; format: cell-based, human
[2] = system: 2LMP xenografts; assay: Analysis of apoptosis in xenografts (TUNEL); format: in vivo, athymic nude mice; details: day 14
Protocol: One group of mice was untreated. The xenografts were dissected for the study of apoptosis on day 14 after tumor cell injection. The reason for the substantial reduction in treatment intensity compared to our standard treatment protocol was to allow adequate tumor tissue for analysis on day 14. Tunel assay for apoptosis in tumor xenografts was performed as follows. Five-micron paraffin sections of tissue were mounted on Superfrost/Plus slides and heated at 58° C. for 1 h. Tissue sections were deparaffinized in three changes of xylene and rehydrated with one change of absolute ethanol, 95% ethanol, and 70% ethanol, each in 5-min increments. Then, the sections were placed in Tris-buffered saline (0.5M Tris base, 0.15 M NaCl, 0.0002% Triton X-100™, pH 7.6). Apoptotic nuclei were detected using an Apop Tag Peroxidase kit (Intergen, Purchase, N.Y.). Proteinase K (20 μg/ml in distilled deionized H2O) was added to the tissue specimens and incubated at room temperature for 15 min. Endogenous peroxidases were quenched with an aqueous solution of 3% hydrogen peroxide for 5 min. Sections were treated with an equilibration buffer for 30 min and then incubated with the TdT/enzyme (diluted in labeling reaction mix) for 1 h at 37° C. using parafilm covers. During this incubation, the TdT enzyme binds the 3′-OH ends of DNA fragments and catalyzes the addition of digoxigenin-labeled and unlabeled deoxynucleotides. Negative controls were incubated with distilled H2O (diluted in labeling reaction mix) instead of the TdT enzyme. A stop buffer was added for 10 min at room temperature to terminate the labeling reaction. An anti-digoxigenin conjugate was added to each slide for 30 min. The chromagen 3,3′ DAB was used to visualize the labeled 3′ OH end of DNA fragments. The slides were then rinsed in deionized water and lightly counterstained with hematoxylin, dehydrated using graded alcohols and xylene and coverlsipped using Permount. Approximately 10 random fields were evaluated for percentage of Tunel stained and percentage of intensely stained apoptotic bodies throughout the tissue.

[3] = system: 2LMP human breast cancer xenografts; assay: TRA-8 therapy alone or with chemotherapy or radiation, breast cancer xenografts; format: in vivo, athymic nude mice; details: aggregate of 6 experiments
Protocol: Athymic nude mice were injected s.c. with 3×10^7 2LMP cells. […] The growth of tumors was monitored over time. […] Tumor size and regression rates were determined.
Data from 6 independent experiments were analyzed by individual experiment. Treatment combinations were compared with respect to in vivo anti-tumor efficacy, i.e., inhibition of tumor growth, which was measured as three endpoints; extension of tumor doubling times, percentage of tumor regressions, and growth rates over time. The actual number of days at which the tumor doubled in surface area (product of two diameters) relative to baseline on day 7 after tumor cell injection was used in the doubling time analysis. The nonparametric Kruskal-Wallis test was used for median tumor doubling time comparisons between treatments. Fisher's exact test was used to compare the proportions of tumor regressions and relapse-free regressions across treatment groups. To determine if any combination therapy produced significant synergistic inhibition of tumor growth, i.e., more than additive, the growth curves from the serial area measurements were compared using a linear mixed model approach over the first 3 weeks after start of therapy (Lindsey, J. K. Models for Repeated Measurements, pp. 100-142, Oxford, 1993). To test for synergistic effects of the combination therapies, an interaction term was included in the model. If the interaction term was significant and the effect was inhibition of growth at a rate greater than additive then the interaction was considered synergistic.
A total of 166 animals, 10 treatment groups, and 6 independent experiments were included in the aggregate analysis. Treatment combinations were compared with respect to in vivo anti-tumor efficacy. The median tumor doubling times were analyzed using the Kruskal-Wallis test and Fisher's exact test was used to compare the proportions of tumor regressions and relapse-free regressions across treatment groups.

[4] = system: PC-3 cells; assay: Combination study of TRA-8 with Paclitaxel (XTT); format: cell-based, human; details: Paclitaxel alone, concentrations of up to 200 nM
Protocol: Human prostate cancer cell line PC-3 is obtained from American Tissue Culture Collection (ATCC) and maintained in F-12K Nutrient Mixture (21127-022, Gibco BRL) containing 10% fetal bovine serum (FBS, Hyclone), 1% L-Glutamine-200 mM (25030-149, Gibco BRL) and 0.5% Penicillin Streptomycin Solution (P-7539, Sigma). RPMI1640 medium (MED-008, IWAKI) supplemented with 10% FBS and 0.5% Penicillin Streptomycin Solution is used in the following experiment. Exponentially growing PC-3 cells are collected by trypsinization and washed twice with fresh medium. The cells are then counted, resuspended in fresh medium at a density of 5×10^4 cells/ml and distributed in triplicate into flat-bottomed 96 well plates (3598, Corning-Coster) in a total volume of 100 μl/well one day before the start of the experiment. A representative anti-cancer drug, Paclitaxel (169-18611, Wako) dissolved in dimethylsulfoxide (10 mg/ml) is diluted in fresh medium and then added to the 96-well plates containing the cells at 50 μl/well. The final concentrations of dimethylsulfoxide are less than 0.1%. […] After incubation for a further 24 hr, 50 μl of Minimum Essential Medium (11095-098, Gibco BRL) containing 1 mg/ml of XTT and […] of PMS is added to the wells and the plates are incubated for 6 hr. OD450 is then measured by SPECTRA MAX 250 (Molecular Devices) and the cell viability is calculated as follows.

[5] = system: Jurkat cells; assay: Apoptosis-inducing activity of humanized antibody (XTT, 12 hours); format: cell-based, human; details: serial 2-fold dilutions from 100 ng/ml
Protocol: Jurkat cells cultured in RPMI1640 medium with 10% FCS (Gibco BRL) at 37° C. for 3 days in the presence of 5% CO2 are dispensed into each well of a 96-well microplate (Sumitomo Bakelite) at 50 μl per well. […] Each of the solutions of the expression products thus adjusted to 100 ng/ml is used to produce serial dilutions by repeating serial 2-fold dilution with RPM11640 containing 10% FCS. […] After reacting at 37° C. for 12 hours, 50 μl of 25 μM PMS (phenazine methosulfate; Sigma Chemical Co.) containing 1 mg/ml XTT (2,3-bis[2-methoxy-4-nitro-5-sulfophenyl]-2H-tetrazolium-5-carboxyaniride inner salt; Sigma Chemical Co.) is added (final concentrations of 250 μg/ml for XTT and 5 μM for PMS). After incubating for 3 hours, the absorbance at 450 nm of each well is measured to calculate the cell viability by using the reduction ability of mitochondria as the index.
The viability of the cells in each well is calculated according to the following formula: Viability(%)=100×(a−b)/(c−b) wherein “a” is the measurement of a test well, “b” is the measurement of a well with no cells, and “c” is the measurement of a well with no antibody added.

For `Cn1cc(C2=C(c3cn(CCCN)c4ccccc34)C(=O)NC2=O)c2ccccc21` [BisVIII, Bisindolylmaleimide VIII], which “sensitivity to induced cytotoxicity” value [1] is on record?
Its value is “sensitive”.

For `CC(=O)O[C@H]1C(=O)[C@@]2(C)[C@H]([C@H](OC(=O)c3ccccc3)[C@]3(O)C[C@H](OC(=O)[C@H](O)[C@@H](NC(=O)c4ccccc4)c4ccccc4)C(C)=C1C3(C)C)[C@]1(OC(C)=O)CO[C@@H]1C[C@@H]2O` [Paclitaxel], which TUNEL stained cells ([2]; 100 μg TRA-8 days 7, 10, adriamycin 3 mg/kg or paclitaxel 10 mg/kg days 8, 11, untreated 4%) is on record?
Its TUNEL stained cells is 7%.

What about the intensely stained cells ([2]; same regimen, untreated 1%) of the same molecule?
Its intensely stained cells is 2%.

And the “Complete Regressions No relapse (%)” value ([3]; number of animals (%))?
The value was 0.

What about the “Complete Regressions Total (%)” value ([3]; number of animals (%)) of the same molecule?
Its value is 0.

And the “Tumor Doubling Time (mean)” value ([3]; relative to day 7)?
The value was 25 days.

And the “Tumor Doubling Time (median)” value ([3]; relative to day 7)?
The value was 20 days.

What about the cell viability remaining [4] of the same molecule?
The cell viability remaining was “more than 40%”.

B1: humanized TRA-8: humanized TRA-8 of Example 20, cotransfection of pHB14-1 and pSR/M2-1 (H2 heavy, LM2 light chain) (antibody)
VH: EVMLVESGGGLVQPGGSLRLSCAASGFTFSSYVMSWVRQAPGKGLEWVATISSGGSYTYYPDSVKGRFTISRDNAKNTLYLQMNSLRAEDTAVYYCARRGDSMITTDYWGQGTLVTVSS
light: DIVMTQSPSSLSASVGDRVTITCKASQDVGTAVAWYQQKPGKAPKLLIYWASTRHTGVPSRFSGSGSGTDFTLTISSLQPEDFATYYCQQYSSYRTFGQGTKVEIKRTVAAPSVFIFPPSDEQLKSGTASVVCLLNNFYPREAKVQWKVDNALQSGNSQESVTEQDSKDSTYSLSSTLTLSKADYEKHKVYACEVTHQGLSSPVTKSFNRGEC
With B1 as the molecule, how does the induction of apoptosis [5] read?
The induction of apoptosis was “induce apoptosis”.
